Test results reported in patent publication US6642265B1, “Thrombopoietin mimetics” (SmithKline Beecham Corporation, priority 2002, dated 2003).

Tests used:
TPO receptor = target: T1, TPO receptor (Homo sapiens, UniProt P40238); test: Luciferase assay in TPO-responsive BaF3 cell line; format: cell-based; conditions: TPO-responsive murine BaF3 cells
T1 construct: expressed in transfected cells; host or cells: murine BaF3 cells
T1 sequence (P40238 26-635): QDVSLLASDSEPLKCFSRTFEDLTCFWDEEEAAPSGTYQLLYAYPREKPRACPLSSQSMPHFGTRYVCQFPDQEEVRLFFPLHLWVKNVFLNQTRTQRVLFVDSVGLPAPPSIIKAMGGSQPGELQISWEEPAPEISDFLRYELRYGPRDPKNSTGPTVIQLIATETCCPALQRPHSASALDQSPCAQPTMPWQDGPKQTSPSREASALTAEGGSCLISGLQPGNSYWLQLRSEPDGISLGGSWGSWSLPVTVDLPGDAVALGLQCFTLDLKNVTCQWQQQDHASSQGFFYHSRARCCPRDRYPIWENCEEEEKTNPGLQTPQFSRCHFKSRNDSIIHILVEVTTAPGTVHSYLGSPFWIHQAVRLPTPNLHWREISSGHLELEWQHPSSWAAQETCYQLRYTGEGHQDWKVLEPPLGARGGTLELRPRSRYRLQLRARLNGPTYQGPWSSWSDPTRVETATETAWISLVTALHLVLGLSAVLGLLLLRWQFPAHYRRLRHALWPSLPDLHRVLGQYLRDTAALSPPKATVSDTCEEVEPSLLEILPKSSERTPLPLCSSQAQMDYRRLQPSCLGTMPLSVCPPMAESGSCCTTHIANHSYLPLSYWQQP
Procedure: Compounds of the present invention were tested for potency as mimetics of the TPO receptor in a Luciferase assay such as described in Lamb, et al., Nucleic Acids Research 23: 3283-3289 (1995) and Seidel, et al., Proc. Natl. Acad. Sci. USA 92: 3041-3045 (1995) by substituting a TPO-responsive BaF3 cell line (Vigon et a). Proc. Natl. Acad. Sci. USA 1992, 89, 5640-5644) for the HepG2 cells utilized therein. The murine BaF3 cells express TPO receptors and closely match the pattern of STAT (signal transducers and activators of transcription) activation observed in primary murine and human bone marrow cells.

Row | SMILES | melting point | EC50 (TPO receptor) [nM] | activity relative to TPO in the luciferase assay (TPO receptor; efficacy printed with the EC50) [% TPO]
1 | Cc1nn(-c2ccc(OCc3ccccc3)cc2)c(O)c1N=Nc1ccc(C(=O)O)cc1O [Example 3, 4-{[1-(4-Benzyloxyphenyl)-5-hydroxy-3-methyl-1H-pyrazol-4-yl]azo}-3-hydroxybenzoic Acid] | 258 to 260 °C (dec.) | – | –
2 | Cc1ccc(-n2nc(C)c(N=Nc3ccc(C(=O)O)cc3O)c2O)cc1C [Example 6, 4-{[1-(3,4-Dimethylphenyl)-5-hydroxy-3-methyl-1H-pyrazol-4-yl]azo}-3-hydroxybenzoic Acid] | – | 1800 | 50
3 | Cc1ccc(-n2nc(C)c(N=Nc3cc(Cl)cc(S(=O)(=O)O)c3O)c2O)cc1C [Example 11, 5-Chloro-3-{[1-(3,4-dimethylphenyl)-5-hydroxy-3-methyl-1H-pyrazol-4-yl]azo}-2-hydroxybenzenesulfonic Acid] | 240 °C (dec.) | – | –
